Test results reported in ChEMBL document CHEMBL1140201, “Insights into ligand-elicited activation of human constitutive androstane receptor based on novel agonists and three-dimensional quantitative structure-activity relationship” (J Med Chem, 2008).

Columns and labels:
Format in all cases: cell-based
[1] = molecular target: T1, CAR (NR1I3) His203Ala mutant (Homo sapiens, UniProt Q14994, H203A); test: Activation of human CAR His203Ala mutant expressed in human C3A cells at 10 uM after 24 hrs by GAL4-dependent luciferase reporter gene assay relative to control; conditions: C3A cells expressing human CAR His203Ala mutant, read-out: FC
T1 sequence (Q14994 whole entry H203A, the tested form may be a part): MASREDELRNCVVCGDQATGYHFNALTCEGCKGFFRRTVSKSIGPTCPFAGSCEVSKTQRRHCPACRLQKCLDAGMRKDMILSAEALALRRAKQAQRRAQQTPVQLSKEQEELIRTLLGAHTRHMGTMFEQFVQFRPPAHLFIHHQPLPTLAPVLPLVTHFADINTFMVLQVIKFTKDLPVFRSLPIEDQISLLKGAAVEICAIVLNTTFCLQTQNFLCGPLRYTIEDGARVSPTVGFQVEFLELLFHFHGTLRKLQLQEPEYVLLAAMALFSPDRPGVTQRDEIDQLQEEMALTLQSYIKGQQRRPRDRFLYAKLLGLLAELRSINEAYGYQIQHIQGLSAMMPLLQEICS

[2] = molecular target: T2, CAR (NR1I3) Phe161Ala mutant (Homo sapiens, UniProt Q14994, F161A); test: Activation of human CAR Phe161Ala mutant expressed in human C3A cells at 10 uM after 24 hrs by GAL4-dependent luciferase reporter gene assay relative to control; conditions: C3A cells expressing human CAR Phe161Ala mutant, read-out: FC
T2 sequence (Q14994 whole entry F161A, the tested form may be a part): as the sequence (Q14994 whole entry H203A, the tested form may be a part) above, with F161A, A203H counted along it

[3] = molecular target: T3, CAR (NR1I3) Ile164Ala mutant (Homo sapiens, UniProt Q14994, I164A); test: Activation of human CAR Ile164Ala mutant expressed in human C3A cells at 10 uM after 24 hrs by GAL4-dependent luciferase reporter gene assay relative to control; conditions: C3A cells expressing human CAR Ile164Ala mutant, read-out: FC
T3 sequence (Q14994 whole entry I164A, the tested form may be a part): as the sequence (Q14994 whole entry H203A, the tested form may be a part) above, with I164A, A203H counted along it

[4] = molecular target: T4, CAR (NR1I3) Asn165Ala mutant (Homo sapiens, UniProt Q14994, N165A); test: Activation of human CAR Asn165Ala mutant expressed in human C3A cells at 10 uM after 24 hrs by GAL4-dependent luciferase reporter gene assay relative to control; conditions: C3A cells expressing human CAR Asn165Ala mutant, read-out: FC
T4 sequence (Q14994 whole entry N165A, the tested form may be a part): as the sequence (Q14994 whole entry H203A, the tested form may be a part) above, with N165A, A203H counted along it

[5] = molecular target: T5, CAR (NR1I3) ligand-binding domain, wild type (Homo sapiens, UniProt Q14994); test: Activation of human CAR-LBD expressed in human C3A cells at 10 uM after 24 hrs by GAL4-dependent luciferase reporter gene assay relative to control; conditions: C3A cells expressing human CAR-LBD, read-out: FC
T5 sequence (Q14994 whole entry): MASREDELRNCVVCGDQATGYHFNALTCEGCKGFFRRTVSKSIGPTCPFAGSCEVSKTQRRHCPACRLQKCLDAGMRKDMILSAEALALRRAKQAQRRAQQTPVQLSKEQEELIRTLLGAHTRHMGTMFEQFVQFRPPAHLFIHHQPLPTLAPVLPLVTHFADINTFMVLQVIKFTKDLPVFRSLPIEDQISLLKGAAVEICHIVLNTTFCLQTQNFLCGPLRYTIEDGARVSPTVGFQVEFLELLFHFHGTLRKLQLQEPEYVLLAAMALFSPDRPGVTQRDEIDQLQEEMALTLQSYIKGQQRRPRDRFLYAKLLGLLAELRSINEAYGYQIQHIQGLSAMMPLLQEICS

[6] = molecular target: T5, CAR (NR1I3) ligand-binding domain, wild type; test: Activation of human CAR-LBD expressed in human C3A cells at 4 uM after 24 hrs by GAL4-dependent luciferase reporter gene assay relative to control; conditions: C3A cells expressing human CAR-LBD, read-out: FC
[7] = molecular target: T4, CAR (NR1I3) Asn165Ala mutant; test: Activation of human CAR Asn165Ala mutant expressed in human C3A cells at 4 uM after 24 hrs by GAL4-dependent luciferase reporter gene assay relative to control; conditions: C3A cells expressing human CAR Asn165Ala mutant, read-out: FC
[8] = molecular target: T2, CAR (NR1I3) Phe161Ala mutant; test: Activation of human CAR Phe161Ala mutant expressed in human C3A cells at 4 uM after 24 hrs by GAL4-dependent luciferase reporter gene assay relative to control; conditions: C3A cells expressing human CAR Phe161Ala mutant, read-out: FC
[9] = molecular target: T1, CAR (NR1I3) His203Ala mutant; test: Activation of human CAR His203Ala mutant expressed in human C3A cells at 4 uM after 24 hrs by GAL4-dependent luciferase reporter gene assay relative to control; conditions: C3A cells expressing human CAR His203Ala mutant, read-out: FC
[10] = molecular target: T3, CAR (NR1I3) Ile164Ala mutant; test: Activation of human CAR Ile164Ala mutant expressed in human C3A cells at 4 uM after 24 hrs by GAL4-dependent luciferase reporter gene assay relative to control; conditions: C3A cells expressing human CAR Ile164Ala mutant, read-out: FC

| SMILES | fold induction at 24 h, 10 µM [1] | fold induction at 24 h, 10 µM [2] | fold induction at 24 h, 10 µM [3] | fold induction at 24 h, 10 µM [4] | fold induction at 24 h, 10 µM [5] | fold induction at 24 h, 4 µM [6] | fold induction at 24 h, 4 µM [7] | fold induction at 24 h, 4 µM [8] | fold induction at 24 h, 4 µM [9] | fold induction at 24 h, 4 µM [10] |
| --- | --- | --- | --- | --- | --- | --- | --- | --- | --- | --- |
| CSCCN1C(=O)CS[C@@H]1c1ccc(Br)s1 | 1.28 | 0.97 | 1.3 | 1.87 | 2.97 | – | – | – | – | – |
| CCC(=O)NCC(=O)N1CCCN1C(=O)Cc1c(C)[nH]c2ccccc12 | 2.06 | 0.96 | 1.08 | 1.23 | 2.39 | – | – | – | – | – |
| Cc1cccc(NC(=O)N(Cc2ccccc2)Cc2ccccc2)c1 | 3.48 | 1.53 | 3.74 | 3.64 | 4.17 | – | – | – | – | – |
| CCc1ccc(S(=O)(=O)Nc2ccccc2C(C)(C)C)cc1 | 2.62 | 0.94 | 1.55 | 1 | 7.92 | – | – | – | – | – |
| C[C@@H]1Cc2ccccc2N1S(=O)(=O)c1cccc2nsnc12 | 1.52 | 1.3 | 6.66 | 1.05 | 5.22 | – | – | – | – | – |
| CCN(CC)c1ccc(NS(=O)(=O)c2ccc(Cl)cc2)c(C)c1 | 3.29 | 1.08 | 4.14 | 1.1 | 5.5 | – | – | – | – | – |
| O=C1CS[C@H](c2ccncc2)N1Cc1nc2ccccc2[nH]1 | 1.24 | 1.3 | 1.13 | 1.19 | 1.4 | – | – | – | – | – |
| CCc1cc(Br)ccc1S(=O)(=O)Nc1ccccc1[C@@H](C)CC | 10.1 | 3.62 | 4.57 | 2.75 | 4.47 | – | – | – | – | – |
| CCCc1ccc(S(=O)(=O)N(Cc2ccccc2)c2ccc(OC)cc2)cc1 | 3.68 | 1.22 | 1.56 | 1.82 | 3.8 | – | – | – | – | – |
| CCCCCNC(=O)Nc1c(C)cccc1C(C)(C)C | 4.17 | 0.97 | 1.24 | 1.76 | 2.6 | – | – | – | – | – |
| CCOc1ccccc1N1CCN(Cc2ccc(C)s2)CC1 | 1.9 | 1.01 | 1.49 | 2.2 | 2.7 | – | – | – | – | – |
| O=P(Oc1ccccc1)(Oc1ccccc1)Oc1ccccc1 [TRIPHENYL PHOSPHATE] | 2.79 | 0.82 | 6.42 | 3.01 | 3.96 | – | – | – | – | – |
| CCc1cccc(NC(=O)N(CC)[C@H](C)Cc2ccc(OC)cc2)c1 | 1.88 | 0.92 | 1.32 | 1.72 | 1.86 | – | – | – | – | – |
| CC(C)c1ccc(OP(=O)(Oc2ccc(C(C)C)cc2)Oc2ccc(C(C)C)cc2)cc1 | 6.76 | 1.06 | 1.67 | 2.66 | 2.45 | – | – | – | – | – |
| Clc1ccccc1C(c1ccccc1)(c1ccccc1)n1ccnc1 [CLOTRIMAZOLE] | – | – | – | – | – | 4.34 | 4.47 | 13.1 | 0.21 | 21.3 |
| CCc1cc(Br)ccc1S(=O)(=O)NCc1ccccc1 | 1.92 | 3.36 | 2.89 | 1.19 | 2.51 | – | – | – | – | – |
| O=S(=O)(NCc1csc2ccccc12)c1cccs1 | 1.43 | 1.57 | 1.54 | 1.7 | 1.76 | – | – | – | – | – |
| CSc1ccccc1NS(=O)(=O)c1cc(Cl)sc1Cl | 1.84 | 0.94 | 1.66 | 5.18 | 3.68 | – | – | – | – | – |
| O=S(=O)(Nc1nc2c(s1)CCCC2)c1ccc(Br)s1 | 1.18 | 1 | 1.06 | 1.01 | 1.32 | – | – | – | – | – |
| CCOc1ccccc1CCCNC(=O)Nc1c(CC)cccc1CC | 1.03 | 1.52 | 1.48 | 0.81 | 4.88 | – | – | – | – | – |
| CN(C)c1ccc(NS(=O)(=O)c2ccc(Br)cc2)cc1 | 2.26 | 1.12 | 2.33 | 0.99 | 2.03 | – | – | – | – | – |
| CCN(c1ccccc1)S(=O)(=O)c1ccc(C(C)(C)CC)cc1 | 4.22 | 1.56 | 1.42 | 1.22 | 6.35 | – | – | – | – | – |
| Cn1ccnc1CN1CCCN(C(=O)Nc2ccc(F)c(F)c2F)CC1 | 1.49 | 1.24 | 1.36 | 1.98 | 2.23 | – | – | – | – | – |
| Cc1cccc(NC(=O)N2CCN(c3cccc(C)c3)[C@H](C)C2)c1 | 1.43 | 1.38 | 0.84 | 1.08 | 1.45 | – | – | – | – | – |
| O=C(NCC1CCCCC1)N[C@H]1C[C@@H]1c1ccccc1 | 2.16 | 1.21 | 2.86 | 1.14 | 2.95 | – | – | – | – | – |
| O=S(=O)(NCCSCc1ccccc1)c1ccc(Cl)cc1 | 3.21 | 0.92 | 2.26 | 1.17 | 1.63 | – | – | – | – | – |
| CCCCN(c1ccccc1)S(=O)(=O)c1cccc2ccccc12 | 5.44 | 4.4 | 6.61 | 2.07 | 4.09 | – | – | – | – | – |
| O=S(=O)(NCC(c1ccccc1)c1ccccc1)c1cccs1 | 1.86 | 0.95 | 1.42 | 0.53 | 3.28 | – | – | – | – | – |
| COc1ccc(OC)c(CN2C(=O)CS[C@@H]2c2ccc(F)c(Br)c2)c1 | 2.83 | 1.17 | 1.87 | 1.13 | 3.87 | – | – | – | – | – |
| Cc1ccc(NC(=O)NC2CCC2)cc1C | 1.53 | 1.15 | 1.37 | 1.33 | 1.37 | – | – | – | – | – |
